This passage reports melting point results from US6969724B2, “Compounds” (SmithKline Beecham-SpA, priority 1998, dated 2005).

By melting point is commonly meant the temperature, or range, at which the solid turns liquid. As to `CO[C@@H]1C[C@@H](CN2CCC(c3ccccc3)CC2)CCc2ccccc21.Cl` (racemic), the melting point is 220 to 222 °C.

Consider `Cl.c1ccc(C2CCN(C3CCc4ccccc4CC3)CC2)cc1`, for which the melting point was above 250 °C.

Consider `O[C@@H]1C[C@H](CN2CCC(c3ccccc3)CC2)CCc2ccccc21` (racemic) [Example 9, (±)-cis-7-[(4-Phenylpiperidin-1-yl)methyl]-6,7,8,9-tetrahydro-5H-benzocyclohepten-5-ol], for which the melting point lay in the range of 48 to 50 °C.

Regarding `Cl.O=C1CC(CN2CCC(c3ccccc3)CC2)CCc2ccccc21` (racemic), the melting point was 220 °C (dec.).

In the case of `Cl.OC1CC(CN2CCC(c3ccccc3)CC2)CCc2c(F)cccc21` (racemic), the melting point was in the range of 218 to 220 °C.

Compound `Cc1cc(C)c2c(c1)C(=O)CC(CN1CCC(c3ccccc3)CC1)CC2.Cl` (racemic) returned a melting point of 222 to 225 °C.

As for `Cc1cc(C)c2c(c1)C(O)CC(CN1CCC(c3ccccc3)CC1)CC2` (racemic) [Example 20, (±)-1,3-dimethyl-7-[(4-phenylpiperidin-1-yl)methyl]-6,7,8,9-tetrahydro-5H-benzocyclohepten-5-ol], the melting point lay in the range of 52 to 55 °C.

On to `Cc1ccccc1C1CCN(CC2CCc3ccccc3CC2)CC1.Cl`, for which the melting point stood at 245 °C.

`Cl.OC1CC(CN2CCC(c3ccccc3)CC2)CCc2c(OCc3ccccc3)cccc21` (racemic) had a melting point of 198 to 202 °C.

In the case of `C1=CC(CN2CCC(c3ccccc3)CC2)CCc2ccccc21.Cl` (racemic), the melting point is above 250 °C.

`Cc1cccc2c1CC[C@@H](CN1CCC(c3cccc(F)c3)CC1)C[C@H]2O.Cl` (racemic) yielded a melting point of 241 to 243 °C.

In turn, `Cl.O[C@@H]1C[C@H](CN2CCC(c3cccc(Br)c3)CC2)CCc2ccccc21` (racemic) displayed a melting point above 250 °C.

For `COc1ccccc1C1CCN(C[C@@H]2CCc3ccccc3[C@H](O)C2)CC1` (racemic) [Example 21, (±)-cis-7-[[4-(2-methoxyphenyl)piperidin-1-yl]methyl]-6,7,8,9-tetrahydro-5H-benzocyclohepten-5-ol], the melting point fell in the range of 72 to 74 °C.

`COc1cccc2c1CCC(CN1CCC(c3ccccc3)CC1)CC2O` (racemic) [Example 10, (±)-1-Methoxy-7-[(4-phenylpiperidin-1-yl)methyl]-6,7,8,9-tetrahydro-5H-benzocyclohepten-5-ol]: the melting point lay within 46 to 48 °C.

Turning to `Cl.O[C@@H]1C[C@@H](CN2CCC(c3ccccc3)CC2)CCc2ccccc21` (racemic), the melting point is above 250 °C.

As for `COc1cccc2c1CC[C@H](CN1CCC(c3ccccc3)CC1)C[C@H]2O.Cl` (racemic), the melting point was above 250 °C.

`COc1cc(OC)cc(C2CCN(CC3CCc4ccccc4C(O)C3)CC2)c1.Cl` (racemic): the melting point lay within 223 to 225 °C.

On to `C1=CC(CN2CCC(c3ccccc3)CC2)Cc2ccccc21.Cl` (racemic), for which the melting point lay in the range of 239 to 240 °C.

As to `COc1ccccc1C1CCN(CC2CCc3ccccc3C(=O)C2)CC1.Cl` (racemic), the melting point fell in the range of 232 to 234 °C.

For `COc1cccc2c1CC[C@@H](CN1CCC(c3ccccc3)CC1)C[C@H]2O.Cl` (racemic), the melting point fell in the range of 229 to 231 °C.

Compound `Cl.OC1CC(CN2CCC(c3ccccc3Cl)CC2)CCc2ccccc21` (racemic) had a melting point of 239 to 240 °C.

Take `Cl.O[C@@H]1C[C@H](CN2CCC(c3ccccc3)CC2)CCc2c(-c3ccccc3)cccc21` (racemic): the melting point is 245 to 246 °C.

`COc1cccc2c1CCC(CN1CCC(c3ccccc3)CC1)CC2=O.Cl` (racemic) displayed a melting point of 140 to 143 °C.

In turn, `Cl.O=C1CC(CN2CCC(c3ccccc3)CC2)CCc2ccc(Cl)cc21` (racemic) showed a melting point of 180 to 185 °C.

With `Cl.c1ccc(C2CCN(CC3CCc4ccccc4CC3)CC2)cc1`, the melting point is above 250 °C.

Compound `COc1ccc2c(c1)C(=O)CC(CN1CCC(c3ccccc3)CC1)CC2.Cl` (racemic) came in with a melting point of 185 to 188 °C.

`CO[C@@H]1C[C@H](CN2CCC(c3ccccc3)CC2)CCc2ccccc21.Cl` (racemic) displayed a melting point of 213 to 215 °C.

Take `Cc1ccccc1C1CCN(C[C@@H]2CCc3ccccc3[C@H](O)C2)CC1.Cl` (racemic): the melting point was above 250 °C.

In turn, `Cl.c1ccc(C2CCN(CC3Cc4ccccc4C3)CC2)cc1` came in with a melting point above 240 °C.

`Cc1cccc2c1CC[C@@H](CN1CCC(c3ccccc3)CC1)C[C@H]2O` (racemic) [Example 27, (±)-cis-1-methyl-7-[(4-phenylpiperidin-1-yl)methyl]-6,7,8,9-tetrahydro-5H-benzocyclohepten-5-ol] came in with a melting point of 52 to 55 °C.

The compound `COc1ccc2c(c1)C(O)CC(CN1CCC(c3ccccc3)CC1)CC2` (racemic) [Example 11, (±)-3-Methoxy-7-[(4-phenylpiperidin-1-yl)methyl]-6,7,8,9-tetrahydro-5H-benzocyclohepten-5-ol] displayed a melting point of 45 to 48 °C.

For `C=CCO[C@@H]1C[C@H](CN2CCC(c3ccccc3)CC2)CCc2ccccc21.Cl` (racemic), the melting point was 126 to 128 °C.

`Cl.O[C@@H]1C[C@H](CN2CCC(c3ccccc3)CC2)CCc2c(Br)cccc21` (racemic) registered a melting point of 220 to 224 °C.

On to `Cl.Oc1cccc2c1CC[C@@H](CN1CCC(c3ccccc3)CC1)C[C@H]2O` (racemic), for which the melting point was in the range of 190 to 193 °C.

Take `Cl.OC1CC(CN2CCC(c3ccc(F)cc3)CC2)CCc2ccccc21` (racemic): the melting point is 227 to 229 °C.

Consider `COc1cccc2c1C(O)CC(CN1CCC(c3ccccc3)CC1)CC2.Cl` (racemic), for which the melting point is 176 to 189 °C.

For `Cl.O[C@@H]1C[C@H](CN2CCC(c3cccc(F)c3)CC2)CCc2ccccc21` (racemic), the melting point was 238 to 240 °C.

As to `Cl.Oc1ccccc1C1CCN(CC2CCc3ccccc3C(O)C2)CC1` (racemic), the melting point lay in the range of 158 to 160 °C.

As for `Cl.O[C@@H]1C[C@H](CN2CCC(c3ccc(OCc4ccccc4)cc3)CC2)CCc2ccccc21` (racemic), the melting point was 225 to 228 °C.

With `Cl.O=C1CC(CN2CCC(c3ccccc3O)CC2)CCc2ccccc21` (racemic), the melting point was in the range of 216 to 218 °C.

For `Cl.c1ccc(C2CCN(C3Cc4ccccc4C3)CC2)cc1`, the melting point is above 250 °C.
